According to ChEMBL document CHEMBL5058649, “Data for DCP probe BAY 1816032” (2022):

Columns and labels:
[1] = target: Serine/threonine-protein kinase mTOR (Homo sapiens) (UniProt P42345); assay: MTOR DiscoveRx kinase panel; conditions: Compound concentration 1.0 uM
[2] = target: Histamine H1 receptor (Homo sapiens) (UniProt P35367); conditions: Compound concentration 10.0 uM
[3] = target: Serine/threonine-protein kinase PAK 5 (Homo sapiens) (UniProt Q9P286); assay: PAK7 DiscoveRx kinase panel; conditions: Compound concentration 1.0 uM
[4] = target: Serine/threonine-protein kinase MRCK gamma (Homo sapiens, UniProt Q6DT37); assay: DMPK2 DiscoveRx kinase panel
[5] = target: LIM domain kinase 2 (Homo sapiens) (UniProt P53671); assay: LIMK2 DiscoveRx kinase panel; conditions: Compound concentration 1.0 uM
[6] = target: Cyclin-dependent kinase 15 (Homo sapiens) (UniProt Q96Q40); assay: PFTAIRE2 DiscoveRx kinase panel; conditions: Compound concentration 1.0 uM
[7] = target: 5-hydroxytryptamine receptor 1B (Homo sapiens) (UniProt P28222); assay: Serotonin (5-Hydroxytryptamine) 5-HT1B Eurofins-Panlabs radioligand binding assay; design: ligand concentration 1 nM; conditions: Compound concentration 10.0 uM
[8] = target: D(1A) dopamine receptor (Homo sapiens) (UniProt P21728); conditions: Compound concentration 10.0 uM
[9] = target: Serine/threonine-protein kinase MRCK beta (Homo sapiens) (UniProt Q9Y5S2); assay: MRCKB DiscoveRx kinase panel; conditions: Compound concentration 1.0 uM
[10] = target: Cyclin-dependent kinase 11A (Homo sapiens) (UniProt Q9UQ88); assay: CDC2L2 DiscoveRx kinase panel; conditions: Compound concentration 1.0 uM
[11] = target: Cyclin-dependent kinase-like 2 (Homo sapiens) (UniProt Q92772); assay: CDKL2 DiscoveRx kinase panel; conditions: Compound concentration 1.0 uM
[12] = target: Ribosomal protein S6 kinase alpha-6 (Homo sapiens) (UniProt Q9UK32); assay: RSK4(Kin.Dom.1-N-terminal) DiscoveRx kinase panel; conditions: Compound concentration 1.0 uM
[13] = species on record: Rattus norvegicus; assay: GABAA, Ro-15-1788, Hippocampus Eurofins-Panlabs radioligand binding assay; design: ligand concentration 1 nM; conditions: Compound concentration 10.0 uM
[14] = target: Tyrosine-protein kinase SYK (Homo sapiens) (UniProt P43405); assay: SYK DiscoveRx kinase panel; conditions: Compound concentration 1.0 uM
[15] = target: Dual specificity mitogen-activated protein kinase kinase 1 (Homo sapiens) (UniProt Q02750); assay: MEK1 DiscoveRx kinase panel; conditions: Compound concentration 1.0 uM
[16] = target: Activin receptor type-2B (Homo sapiens) (UniProt Q13705); assay: ACVR2B DiscoveRx kinase panel; conditions: Compound concentration 1.0 uM
[17] = target: RAC-beta serine/threonine-protein kinase (Homo sapiens) (UniProt P31751); assay: AKT2 DiscoveRx kinase panel; conditions: Compound concentration 1.0 uM
[18] = target: Activin receptor type-1-like (Homo sapiens) (UniProt P37023); assay: ACVRL1 DiscoveRx kinase panel; conditions: Compound concentration 1.0 uM
[19] = target: Serine/threonine-protein kinase TAO2 (Homo sapiens) (UniProt Q9UL54); assay: TAOK2 DiscoveRx kinase panel; conditions: Compound concentration 1.0 uM
[20] = target: Mitogen-activated protein kinase 4 (Homo sapiens) (UniProt P31152); assay: ERK4 DiscoveRx kinase panel; conditions: Compound concentration 1.0 uM
[21] = target: Histamine H1 receptor (Homo sapiens) (UniProt P35367); conditions: Compound concentration 10.0 uM; remark: listed apart in the source
[22] = target: High affinity nerve growth factor receptor (Homo sapiens) (UniProt P04629); assay: TRKA DiscoveRx kinase panel; conditions: Compound concentration 1.0 uM
[23] = test system: Caco-2; assay: Caco2 cell line Proliferation assay; assay type: functional, Homo sapiens; conditions: time 4 day
[24] = target: Protein kinase C theta type (Homo sapiens) (UniProt Q04759); assay: PRKCQ DiscoveRx kinase panel; conditions: Compound concentration 1.0 uM
[25] = target: Phosphorylase b kinase gamma catalytic chain, skeletal muscle/heart isoform (Homo sapiens) (UniProt Q16816); assay: PHKG1 DiscoveRx kinase panel; conditions: Compound concentration 1.0 uM
[26] = target: Vasopressin V1a receptor (Homo sapiens) (UniProt P37288); assay: Vasopressin V1A Eurofins-Panlabs radioligand binding assay; conditions: Compound concentration 10.0 uM
[27] = target: SRSF protein kinase 3 (Homo sapiens) (UniProt Q9UPE1); assay: SRPK3 DiscoveRx kinase panel; conditions: Compound concentration 1.0 uM
[28] = target: 5-hydroxytryptamine receptor 1D (Homo sapiens, UniProt P28221); conditions: Compound concentration 10.0 uM
[29] = target: Kappa-type opioid receptor (Homo sapiens) (UniProt P41145); conditions: Compound concentration 10.0 uM
[30] = target: Calcium/calmodulin-dependent protein kinase type 1G (Homo sapiens) (UniProt Q96NX5); assay: CAMK1G DiscoveRx kinase panel; conditions: Compound concentration 1.0 uM
[31] = target: Tyrosine-protein kinase Lck (Homo sapiens) (UniProt P06239); assay: Inhibition of Protein Tyrosine Kinase, LCK at 10 µM in the Eurofins-Panlabs enzyme assay (Eurofins_assay_176020); conditions: Compound concentration 10.0 uM
[32] = target: Sodium-dependent dopamine transporter (Homo sapiens, UniProt Q01959); assay: GPCRScan assay: inhibition of DAT; design: radioligand conc. used [nm] 3.6 – 16.0, parental cells stable HEK
[33] = target: Platelet-derived growth factor receptor beta (Homo sapiens) (UniProt P09619); assay: PDGFRB DiscoveRx kinase panel; conditions: Compound concentration 1.0 uM
[34] = target: Death-associated protein kinase 3 (Homo sapiens) (UniProt O43293); assay: DAPK3 DiscoveRx kinase panel; conditions: Compound concentration 1.0 uM
[35] = target: Tyrosine-protein kinase Fer (Homo sapiens) (UniProt P16591); assay: FER DiscoveRx kinase panel; conditions: Compound concentration 1.0 uM
[36] = target: Serine/threonine-protein kinase B-raf (Homo sapiens) (UniProt P15056); assay: BRAF DiscoveRx kinase panel; conditions: Compound concentration 1.0 uM
[37] = target: Tyrosine-protein kinase Fes/Fps (Homo sapiens) (UniProt P07332); assay: FES DiscoveRx kinase panel; conditions: Compound concentration 1.0 uM
[38] = test system: HT1197; assay: HT-1197 cell line Proliferation assay; assay type: functional, Homo sapiens; conditions: time 4 day
[39] = target: Serine/threonine-protein kinase LATS1 (Homo sapiens) (UniProt O95835); assay: LATS1 DiscoveRx kinase panel; conditions: Compound concentration 1.0 uM
[40] = target: Serine/threonine-protein kinase WNK2 (Homo sapiens) (UniProt Q9Y3S1); assay: WNK2 DiscoveRx kinase panel; conditions: Compound concentration 1.0 uM
[41] = target: Ribosomal protein S6 kinase beta-1 (Homo sapiens) (UniProt P23443); assay: S6K1 DiscoveRx kinase panel; conditions: Compound concentration 1.0 uM
[42] = target: hERG (KCNH2) (Homo sapiens, UniProt Q12809); assay: Inhibition of Potassium Channel hERG at 10 µM in the Eurofins-Panlabs radioligand binding assay (Eurofins_assay_265900); design: ligand concentration 1.5 nM, non-specific ligand with concentration Astemizole, incubation time 60 min, incubation temperature 25 °C; conditions: HEK-293 cells expressing human recombinant hERG, probe [3H] Astemizole, compound concentration 10 uM
[43] = target: Muscarinic acetylcholine receptor M3 (Homo sapiens) (UniProt P20309); conditions: Compound concentration 10.0 uM
[44] = target: Mitogen-activated protein kinase kinase kinase kinase 3 (Homo sapiens) (UniProt Q8IVH8); assay: MAP4K3 DiscoveRx kinase panel; conditions: Compound concentration 1.0 uM
[45] = target: Fibroblast growth factor receptor 1 (Homo sapiens) (UniProt P11362); assay: FGFR1 DiscoveRx kinase panel; conditions: Compound concentration 1.0 uM
[46] = target: Insulin receptor-related protein (Homo sapiens) (UniProt P14616); assay: INSRR DiscoveRx kinase panel; conditions: Compound concentration 1.0 uM
[47] = target: Rhodopsin kinase GRK1 (Homo sapiens) (UniProt Q15835); assay: GRK1 DiscoveRx kinase panel; conditions: Compound concentration 1.0 uM
[48] = target: Interleukin-1 receptor-associated kinase 1 (Homo sapiens) (UniProt P51617); assay: IRAK1 DiscoveRx kinase panel; conditions: Compound concentration 1.0 uM

Sequence of Histamine H1 receptor (Homo sapiens) (P35367 whole entry): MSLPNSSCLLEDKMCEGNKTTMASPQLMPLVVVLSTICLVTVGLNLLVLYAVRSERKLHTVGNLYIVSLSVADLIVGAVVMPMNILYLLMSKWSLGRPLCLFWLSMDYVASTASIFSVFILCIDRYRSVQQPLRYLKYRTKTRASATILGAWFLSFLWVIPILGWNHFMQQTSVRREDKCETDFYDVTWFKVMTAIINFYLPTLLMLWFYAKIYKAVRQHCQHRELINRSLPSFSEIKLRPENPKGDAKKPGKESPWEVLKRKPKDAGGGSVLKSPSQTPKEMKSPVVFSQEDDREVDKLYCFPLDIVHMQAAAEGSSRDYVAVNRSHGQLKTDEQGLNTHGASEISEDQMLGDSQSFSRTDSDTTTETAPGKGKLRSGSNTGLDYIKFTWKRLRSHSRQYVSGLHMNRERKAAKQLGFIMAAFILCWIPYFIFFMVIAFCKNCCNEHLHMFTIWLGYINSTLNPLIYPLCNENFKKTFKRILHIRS
Sequence of Serine/threonine-protein kinase MRCK gamma (Q6DT37 whole entry, the tested form may be a part): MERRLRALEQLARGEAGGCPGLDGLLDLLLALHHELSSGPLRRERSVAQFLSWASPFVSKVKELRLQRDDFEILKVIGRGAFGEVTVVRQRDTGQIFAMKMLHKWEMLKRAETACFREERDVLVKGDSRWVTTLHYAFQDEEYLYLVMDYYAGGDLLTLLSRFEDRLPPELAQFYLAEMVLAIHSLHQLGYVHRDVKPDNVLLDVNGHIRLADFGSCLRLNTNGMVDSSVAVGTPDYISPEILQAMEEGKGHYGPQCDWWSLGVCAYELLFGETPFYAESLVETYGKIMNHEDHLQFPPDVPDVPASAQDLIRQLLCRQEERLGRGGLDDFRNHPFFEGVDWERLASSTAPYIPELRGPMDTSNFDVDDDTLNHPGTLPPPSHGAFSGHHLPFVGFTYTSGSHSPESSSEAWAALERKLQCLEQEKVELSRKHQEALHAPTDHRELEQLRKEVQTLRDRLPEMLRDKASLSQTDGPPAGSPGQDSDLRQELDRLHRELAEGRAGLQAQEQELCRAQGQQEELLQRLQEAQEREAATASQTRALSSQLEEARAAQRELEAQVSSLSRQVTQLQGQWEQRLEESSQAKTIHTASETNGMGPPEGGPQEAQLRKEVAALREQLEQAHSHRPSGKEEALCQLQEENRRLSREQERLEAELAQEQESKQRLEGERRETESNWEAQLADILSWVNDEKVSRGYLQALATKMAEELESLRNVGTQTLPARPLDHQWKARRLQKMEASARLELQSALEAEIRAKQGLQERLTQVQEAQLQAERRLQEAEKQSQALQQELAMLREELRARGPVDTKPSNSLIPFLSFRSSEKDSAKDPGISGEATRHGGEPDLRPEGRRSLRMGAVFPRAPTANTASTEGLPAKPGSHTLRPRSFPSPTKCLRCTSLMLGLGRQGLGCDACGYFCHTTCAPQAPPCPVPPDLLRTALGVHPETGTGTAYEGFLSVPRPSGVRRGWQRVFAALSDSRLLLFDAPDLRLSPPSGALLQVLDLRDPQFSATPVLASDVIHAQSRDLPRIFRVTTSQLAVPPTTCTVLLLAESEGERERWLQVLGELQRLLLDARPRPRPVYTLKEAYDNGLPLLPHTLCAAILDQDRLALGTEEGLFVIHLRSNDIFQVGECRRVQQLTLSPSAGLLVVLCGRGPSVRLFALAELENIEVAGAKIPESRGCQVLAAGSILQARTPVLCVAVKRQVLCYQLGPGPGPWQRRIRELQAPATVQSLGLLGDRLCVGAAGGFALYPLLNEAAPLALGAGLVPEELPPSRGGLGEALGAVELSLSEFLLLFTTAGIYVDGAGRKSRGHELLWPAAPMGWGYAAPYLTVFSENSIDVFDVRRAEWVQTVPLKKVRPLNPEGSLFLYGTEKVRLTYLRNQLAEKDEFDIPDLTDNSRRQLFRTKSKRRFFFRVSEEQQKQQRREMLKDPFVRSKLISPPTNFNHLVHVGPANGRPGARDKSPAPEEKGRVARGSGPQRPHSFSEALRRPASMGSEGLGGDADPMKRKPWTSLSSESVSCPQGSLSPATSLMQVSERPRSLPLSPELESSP
Sequence of Sodium-dependent dopamine transporter (Q01959 whole entry): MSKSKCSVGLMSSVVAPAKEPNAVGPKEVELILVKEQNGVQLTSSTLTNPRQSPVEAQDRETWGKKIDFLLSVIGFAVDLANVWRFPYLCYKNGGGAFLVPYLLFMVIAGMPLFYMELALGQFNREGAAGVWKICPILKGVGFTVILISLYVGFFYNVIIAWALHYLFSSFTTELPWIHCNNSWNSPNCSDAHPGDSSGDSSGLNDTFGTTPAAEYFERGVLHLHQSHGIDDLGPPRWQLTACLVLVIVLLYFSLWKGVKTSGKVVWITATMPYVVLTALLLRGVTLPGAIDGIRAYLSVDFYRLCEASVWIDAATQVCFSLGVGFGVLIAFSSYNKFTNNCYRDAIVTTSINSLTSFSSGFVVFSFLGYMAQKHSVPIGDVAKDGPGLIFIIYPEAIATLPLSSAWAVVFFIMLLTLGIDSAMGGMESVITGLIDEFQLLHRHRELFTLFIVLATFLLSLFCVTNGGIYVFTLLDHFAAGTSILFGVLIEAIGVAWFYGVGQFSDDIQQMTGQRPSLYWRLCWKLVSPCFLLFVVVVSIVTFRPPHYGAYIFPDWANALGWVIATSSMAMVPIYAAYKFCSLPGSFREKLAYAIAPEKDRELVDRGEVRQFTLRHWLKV
Sequence of Kappa-type opioid receptor (Homo sapiens) (P41145 whole entry): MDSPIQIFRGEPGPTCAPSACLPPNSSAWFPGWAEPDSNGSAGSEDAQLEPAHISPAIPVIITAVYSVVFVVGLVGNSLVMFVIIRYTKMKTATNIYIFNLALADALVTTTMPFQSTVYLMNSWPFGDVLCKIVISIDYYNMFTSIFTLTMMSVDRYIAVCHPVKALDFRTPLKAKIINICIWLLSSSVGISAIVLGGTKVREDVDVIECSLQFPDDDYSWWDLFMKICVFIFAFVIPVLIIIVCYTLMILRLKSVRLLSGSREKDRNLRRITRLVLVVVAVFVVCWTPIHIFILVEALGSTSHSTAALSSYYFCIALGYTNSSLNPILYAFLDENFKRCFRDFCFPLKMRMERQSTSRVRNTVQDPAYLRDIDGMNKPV
Sequence of Mitogen-activated protein kinase kinase kinase kinase 3 (Homo sapiens) (Q8IVH8 whole entry): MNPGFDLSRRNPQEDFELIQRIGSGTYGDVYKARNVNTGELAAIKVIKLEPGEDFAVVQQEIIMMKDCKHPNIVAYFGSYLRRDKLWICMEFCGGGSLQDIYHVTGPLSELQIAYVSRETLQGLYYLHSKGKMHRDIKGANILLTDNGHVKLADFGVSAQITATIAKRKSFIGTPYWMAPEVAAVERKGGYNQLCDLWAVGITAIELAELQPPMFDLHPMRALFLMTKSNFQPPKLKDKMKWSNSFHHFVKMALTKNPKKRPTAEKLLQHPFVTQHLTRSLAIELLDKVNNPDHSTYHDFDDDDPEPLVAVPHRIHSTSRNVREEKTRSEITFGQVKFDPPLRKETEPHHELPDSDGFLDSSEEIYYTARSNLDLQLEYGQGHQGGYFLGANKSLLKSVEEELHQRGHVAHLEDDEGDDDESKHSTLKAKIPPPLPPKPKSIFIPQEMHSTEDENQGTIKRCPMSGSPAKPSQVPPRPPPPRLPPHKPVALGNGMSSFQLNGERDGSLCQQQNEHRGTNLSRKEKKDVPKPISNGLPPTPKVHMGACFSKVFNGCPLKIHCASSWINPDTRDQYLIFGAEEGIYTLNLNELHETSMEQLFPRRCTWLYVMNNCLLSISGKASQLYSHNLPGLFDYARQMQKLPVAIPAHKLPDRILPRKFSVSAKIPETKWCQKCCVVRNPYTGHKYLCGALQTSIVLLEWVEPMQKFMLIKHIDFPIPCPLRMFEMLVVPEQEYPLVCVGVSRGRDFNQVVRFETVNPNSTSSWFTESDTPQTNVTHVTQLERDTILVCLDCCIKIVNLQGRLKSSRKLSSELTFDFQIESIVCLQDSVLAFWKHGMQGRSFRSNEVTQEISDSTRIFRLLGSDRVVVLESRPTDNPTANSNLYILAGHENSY
Sequence of Mitogen-activated protein kinase 4 (Homo sapiens) (P31152 whole entry): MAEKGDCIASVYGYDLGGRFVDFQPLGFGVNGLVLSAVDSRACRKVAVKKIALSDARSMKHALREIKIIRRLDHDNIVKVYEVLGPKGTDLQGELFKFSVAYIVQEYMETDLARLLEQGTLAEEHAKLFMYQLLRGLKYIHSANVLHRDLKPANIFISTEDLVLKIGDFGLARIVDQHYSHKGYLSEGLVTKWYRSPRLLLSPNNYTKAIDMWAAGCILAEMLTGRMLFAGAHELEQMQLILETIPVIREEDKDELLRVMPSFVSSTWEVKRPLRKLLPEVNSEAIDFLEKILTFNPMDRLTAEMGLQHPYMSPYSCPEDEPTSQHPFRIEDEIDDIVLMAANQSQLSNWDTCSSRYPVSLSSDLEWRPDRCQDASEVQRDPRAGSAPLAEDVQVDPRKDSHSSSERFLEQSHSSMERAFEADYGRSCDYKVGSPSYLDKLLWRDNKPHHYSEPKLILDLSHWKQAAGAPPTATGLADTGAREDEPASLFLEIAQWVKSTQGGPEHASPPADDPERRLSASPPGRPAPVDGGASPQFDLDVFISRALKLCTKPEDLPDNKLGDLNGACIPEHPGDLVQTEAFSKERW
Sequence of Dual specificity mitogen-activated protein kinase kinase 1 (Homo sapiens) (Q02750 whole entry): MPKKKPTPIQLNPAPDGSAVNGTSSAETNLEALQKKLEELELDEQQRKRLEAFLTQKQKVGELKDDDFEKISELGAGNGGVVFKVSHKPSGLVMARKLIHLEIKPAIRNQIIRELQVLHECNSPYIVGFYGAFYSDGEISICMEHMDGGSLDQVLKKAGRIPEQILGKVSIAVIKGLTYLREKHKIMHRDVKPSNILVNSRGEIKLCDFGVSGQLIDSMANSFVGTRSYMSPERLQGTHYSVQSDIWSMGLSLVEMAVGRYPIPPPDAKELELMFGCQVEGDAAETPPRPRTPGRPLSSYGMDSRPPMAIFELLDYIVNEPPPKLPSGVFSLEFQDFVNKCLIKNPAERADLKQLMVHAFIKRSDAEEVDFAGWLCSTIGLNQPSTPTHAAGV

What does the source list for COc1cnccc1Nc1nc(-c2nn(Cc3c(F)cc(OCCO)cc3F)c3ccccc23)ncc1OC?
residual activity [1]: 100%; inhibition [2]: 16.9%; residual activity [3]: 85%; Kd [4]: 0.85 µM; residual activity ([4]; Compound concentration 1.0 uM): 22%; residual activity [5]: 97%; residual activity [6]: 96%; inhibition [7]: 15%; inhibition [8]: 5%; residual activity [9]: 98%; residual activity [10]: 100%; residual activity [11]: 90%; residual activity [12]: 100%; inhibition [13]: 22%; residual activity [14]: 100%; residual activity [15]: 97%; residual activity [16]: 94%; residual activity [17]: 88%; residual activity [18]: 69%; residual activity [19]: 100%; residual activity [20]: 96%; inhibition [21]: 12%; residual activity [22]: 92%; Cell Proliferation IC50 [23]: 1 µM; residual activity [24]: 77%; residual activity [25]: 100%; inhibition [26]: 11%; residual activity [27]: 87%; inhibition [28]: 9.3%; inhibition [29]: 15.2%; residual activity [30]: 99%; inhibition [31]: 6%; pKi [32]: < 5; Ki ([32]; read-out: Ki): > 10 µM; residual activity [33]: 77%; residual activity [34]: 84%; residual activity [35]: 100%; residual activity [36]: 99%; residual activity [37]: 80%; Cell Proliferation IC50 [38]: 4.9 µM; residual activity [39]: 95%; residual activity [40]: 91%; residual activity [41]: 100%; inhibition at 60 min, 10 µM [42]: 23% (not active); inhibition [43]: -5%; residual activity [44]: 100%; residual activity [45]: 87%; residual activity [46]: 96%; residual activity [47]: 100%; residual activity [48]: 100%
